This is an account of results in patent US8785452B2, “Anti-infective compounds” (priority 2008, dated 2014).

As a reminder, the inhibition is the drop in the measured response relative to a control, in per cent.

The test system of the first series is M. tuberculosis H37Rv-GFP. Put plainly: microbe, parasite or virus in culture. It counts as cell-based, Mycobacterium tuberculosis. As to conditions: Mycobacterium tuberculosis, H37RV, Macrophage; confirmation, 0.2 uM, intracellular; read-out: QIM Confirm % Inhibition 0.2 uM.
`O=[N+]([O-])c1ccc(/C=N/c2ccccc2O)cc1` [IPK 000 040 14]: the inhibition at 0.2 µM amounted to 20.4%.

Turning to `O=C(NN=C1CCCCC1)c1ccncc1` [IPK 000 013 72], the inhibition at 0.2 µM stood at 63.2%.

Turning to `C/C(=N/NC(=O)c1ccncc1)c1cccs1` [IPK 000 003 01], the inhibition at 0.2 µM came to 4.7%.

The series is the same for the next values; noted with them: Mycobacterium tuberculosis, H37RV, Macrophage; confirmation, 2 uM, intracellular; read-out: QIM Confirm % Inhibition 2 uM.
In the case of `O=[N+]([O-])c1ccc(/C=N/c2ccccc2O)cc1` [IPK 000 040 14], the inhibition at 2 µM amounted to 15.6%.

As for `O=C(NN=C1CCCCC1)c1ccncc1` [IPK 000 013 72], the inhibition at 2 µM is 104%.

In the case of `C/C(=N/NC(=O)c1ccncc1)c1cccs1` [IPK 000 003 01], the inhibition at 2 µM was determined as 77.1%.

Still in this series, the particulars now being: Mycobacterium tuberculosis, H37RV, Macrophage; confirmation, 20 uM, intracellular; read-out: QIM Confirm % Inhibition 20 uM.
With `[C-]#[N+]c1ccc(Cl)cc1C(C)S(=O)(=O)c1ccc(C)cc1` (stereo not shown) [IPK 000 126 33], the inhibition at 20 µM stood at 73.4%.

Take `CC(C)(C)c1cc(C(=O)N/N=C2\C(=O)N(Cc3ccccc3)c3ccccc32)[nH]n1` [IPK 000 138 12]: the inhibition at 20 µM worked out at 105%.

The same series, now with this note: Mycobacterium tuberculosis, H37RV, Macrophage; confirmation, 20 uM; read-out: QIM Confirm % Inhibition 20 uM.
Take `CCCCOC(=O)C1(O)c2ccccc2-c2ccccc21` [IPK 000 105 56]: the inhibition at 20 µM is 86.9%.

Take `O=[N+]([O-])c1ccc(/C=N/c2ccccc2O)cc1` [IPK 000 040 14]: the inhibition at 20 µM was found to be 18.1%.

For the compound `O=C(NN=C1CCCCC1)c1ccncc1` [IPK 000 013 72], the inhibition at 20 µM is 101%.

In the case of `C/C(=N/NC(=O)c1ccncc1)c1cccs1` [IPK 000 003 01], the inhibition at 20 µM was determined as 40.4%.

Turning to `C=CCN1C(=O)/C(=N/NC(=O)c2ccc(F)cc2)c2ccccc21` [IPK 000 104 67], the inhibition at 20 µM worked out at 73.7%.

For the compound `CCOC(=O)C1(O)c2ccccc2-c2ccccc21` [IPK 000 105 55], the inhibition at 20 µM turned out to be 91.5%.

As for `CN(C)c1ccc(/N=N/c2ccccc2C(=O)O)cc1` [IPK 000 052 75], the inhibition at 20 µM stood at 10.1%.

In the case of `O=C([O-])Cc1ccccc1Nc1c(Cl)cccc1Cl.[Na+]` [IPK 000 117 05], the inhibition at 20 µM is 80.5%.

`O=C(Nc1ccc(Br)cc1)c1cc([N+](=O)[O-])cc([N+](=O)[O-])c1` [IPK 000 046 92]: the inhibition at 20 µM was found to be 93.4%.

Still in this series, the particulars now being: Mycobacterium tuberculosis, H37RV, Macrophage; primary screen, 20 μM, intracellular; read-out: Primary QIM % Inhibition.
For the compound `[C-]#[N+]c1ccc(Cl)cc1C(C)S(=O)(=O)c1ccc(C)cc1` (stereo not shown) [IPK 000 126 33], the inhibition at 20 µM turned out to be 80.7%.

With `CC(C)(C)c1cc(C(=O)N/N=C2\C(=O)N(Cc3ccccc3)c3ccccc32)[nH]n1` [IPK 000 138 12], the inhibition at 20 µM stood at 96.8%.

The same series, now with this note: Mycobacterium tuberculosis, H37RV, Macrophage; primary screen, 20 μM; read-out: Primary QIM % Inhibition.
For the compound `CCCCOC(=O)C1(O)c2ccccc2-c2ccccc21` [IPK 000 105 56], the inhibition at 20 µM came to 65.7%.

Consider `O=[N+]([O-])c1ccc(/C=N/c2ccccc2O)cc1` [IPK 000 040 14], for which the inhibition at 20 µM is -38.6%.

In the case of `O=C(NN=C1CCCCC1)c1ccncc1` [IPK 000 013 72], the inhibition at 20 µM stood at 82.2%.

For `C/C(=N/NC(=O)c1ccncc1)c1cccs1` [IPK 000 003 01], the inhibition at 20 µM turned out to be 88.2%.

For `C=CCN1C(=O)/C(=N/NC(=O)c2ccc(F)cc2)c2ccccc21` [IPK 000 104 67], the inhibition at 20 µM was 33.8%.

As for `CCOC(=O)C1(O)c2ccccc2-c2ccccc21` [IPK 000 105 55], the inhibition at 20 µM was 89.3%.

Take `CN(C)c1ccc(/N=N/c2ccccc2C(=O)O)cc1` [IPK 000 052 75]: the inhibition at 20 µM was -77.4%.

As for `O=C([O-])Cc1ccccc1Nc1c(Cl)cccc1Cl.[Na+]` [IPK 000 117 05], the inhibition at 20 µM came out at 79.8%.

For `O=C(Nc1ccc(Br)cc1)c1cc([N+](=O)[O-])cc([N+](=O)[O-])c1` [IPK 000 046 92], the inhibition at 20 µM came to 90.2%.

In the next series the test system is Raw264.7 cells. The series can be described thus: Cell number (CellNb) from image analysis of the phenotypic cell-based assay. Conditions: confirmation, 0.2 uM.
Take `O=[N+]([O-])c1ccc(/C=N/c2ccccc2O)cc1` [IPK 000 040 14]: the “QIM Confirm CellNb 0.2 uM” value amounted to 321.4.

Take `O=C(NN=C1CCCCC1)c1ccncc1` [IPK 000 013 72]: the “QIM Confirm CellNb 0.2 uM” value is reported as 448.5.

As for `C/C(=N/NC(=O)c1ccncc1)c1cccs1` [IPK 000 003 01], the “QIM Confirm CellNb 0.2 uM” value came to 232.6.

The same series, now with this note: confirmation, 2 uM.
Consider `[C-]#[N+]c1ccc(Cl)cc1C(C)S(=O)(=O)c1ccc(C)cc1` (stereo not shown) [IPK 000 126 33], for which the “QIM Confirm CellNb 2 uM” value came to 126.8.

As for `O=[N+]([O-])c1ccc(/C=N/c2ccccc2O)cc1` [IPK 000 040 14], the “QIM Confirm CellNb 2 uM” value is 262.3.

As to `O=C(NN=C1CCCCC1)c1ccncc1` [IPK 000 013 72], the “QIM Confirm CellNb 2 uM” value is recorded as 541.6.

For `C/C(=N/NC(=O)c1ccncc1)c1cccs1` [IPK 000 003 01], the “QIM Confirm CellNb 2 uM” value is recorded as 457.3.

The series is the same for the next values; noted with them: confirmation, 20 uM.
Turning to `O=[N+]([O-])c1ccc(/C=N/c2ccccc2O)cc1` [IPK 000 040 14], the “QIM Confirm CellNb 20 uM” value is reported as 330.0.

As to `O=C(NN=C1CCCCC1)c1ccncc1` [IPK 000 013 72], the “QIM Confirm CellNb 20 uM” value is 457.3.

For `C/C(=N/NC(=O)c1ccncc1)c1cccs1` [IPK 000 003 01], the “QIM Confirm CellNb 20 uM” value is 248.3.

The same series, now with this note: primary screen, 20 μM.
With `[C-]#[N+]c1ccc(Cl)cc1C(C)S(=O)(=O)c1ccc(C)cc1` (stereo not shown) [IPK 000 126 33], the “Primary QIM CellNb” value is 123.3.

As for `CCCCOC(=O)C1(O)c2ccccc2-c2ccccc21` [IPK 000 105 56], the “Primary QIM CellNb” value is on record as 225.0.

For `O=[N+]([O-])c1ccc(/C=N/c2ccccc2O)cc1` [IPK 000 040 14], the “Primary QIM CellNb” value is reported as 95.5.

For `O=C(NN=C1CCCCC1)c1ccncc1` [IPK 000 013 72], the “Primary QIM CellNb” value came to 355.5.

For `C/C(=N/NC(=O)c1ccncc1)c1cccs1` [IPK 000 003 01], the “Primary QIM CellNb” value worked out at 373.5.

Consider `C=CCN1C(=O)/C(=N/NC(=O)c2ccc(F)cc2)c2ccccc21` [IPK 000 104 67], for which the “Primary QIM CellNb” value worked out at 183.0.

Take `CC(C)(C)c1cc(C(=O)N/N=C2\C(=O)N(Cc3ccccc3)c3ccccc32)[nH]n1` [IPK 000 138 12]: the “Primary QIM CellNb” value was 480.8.

`CCOC(=O)C1(O)c2ccccc2-c2ccccc21` [IPK 000 105 55]: the “Primary QIM CellNb” value turned out to be 181.3.

For `CN(C)c1ccc(/N=N/c2ccccc2C(=O)O)cc1` [IPK 000 052 75], the “Primary QIM CellNb” value was 48.8.

Turning to `O=C([O-])Cc1ccccc1Nc1c(Cl)cccc1Cl.[Na+]` [IPK 000 117 05], the “Primary QIM CellNb” value is reported as 656.5.

As to `O=C(Nc1ccc(Br)cc1)c1cc([N+](=O)[O-])cc([N+](=O)[O-])c1` [IPK 000 046 92], the “Primary QIM CellNb” value was 303.5.

In the next series the test system is M. tuberculosis H37Rv-GFP. The series can be described thus: microbe, parasite or virus in culture. The class given is cell-based. As to conditions: Mycobacterium tuberculosis, read-out: QUM Confirm % Inhibition 0.2 uM.
As to `O=[N+]([O-])c1ccc(/C=N/c2ccccc2O)cc1` [IPK 000 040 14], the inhibition at 0.2 µM turned out to be 38.7%.

`O=C(NN=C1CCCCC1)c1ccncc1` [IPK 000 013 72]: the inhibition at 0.2 µM worked out at 57.7%.

As for `C/C(=N/NC(=O)c1ccncc1)c1cccs1` [IPK 000 003 01], the inhibition at 0.2 µM is 46.4%.

The same series, now with this note: Mycobacterium tuberculosis, read-out: QUM Confirm % Inhibition 2 uM.
As for `O=[N+]([O-])c1ccc(/C=N/c2ccccc2O)cc1` [IPK 000 040 14], the inhibition at 2 µM is 46.8%.

`O=C(NN=C1CCCCC1)c1ccncc1` [IPK 000 013 72]: the inhibition at 2 µM came to 73.9%.

For the compound `C/C(=N/NC(=O)c1ccncc1)c1cccs1` [IPK 000 003 01], the inhibition at 2 µM amounted to 82.8%.

Staying with this series, now noted: Mycobacterium tuberculosis, read-out: QUM Confirm % Inhibition 20 uM.
For the compound `O=[N+]([O-])c1ccc(/C=N/c2ccccc2O)cc1` [IPK 000 040 14], the inhibition at 20 µM was 68.4%.

As to `O=C(NN=C1CCCCC1)c1ccncc1` [IPK 000 013 72], the inhibition at 20 µM turned out to be 98%.

Consider `C/C(=N/NC(=O)c1ccncc1)c1cccs1` [IPK 000 003 01], for which the inhibition at 20 µM worked out at 43%.
